Target: MCH receptor (Homo sapiens, UniProt Q99705)
Test: High throughput functional screening FLIPR/FDSS6000: inhibition of MCH-evoked intracellular Ca2+ changes
Format: cell-based
Details: class by percent of control at 10^-7 M or IC50
Outline: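 Seed cells the day before, then load them with Fluo4-AM for one hour at 37° C and wash in HEPES-buffered HBSS, pH 7.4. Add compound for 3 min, then stimulate with 50 nM MCH. Monitor the calcium transient for 290 s.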

Row | Molecule | class
1 | Cc1noc(-c2ccccc2)c1NC(=O)N[C@H]1CC[C@@H](Nc2nc(N(C)C)c3ccccc3n2)CC1 [compound 354, N-(cis-4-{[4-(dimethylamino)quinazolin-2-yl]amino}cyclohexyl)-N′-(3-methyl-5-phenylisoxazol-4-yl)urea] | 1 (Class 1: The value of percent of control at 10^−7 M was less than 40% or the value of IC50 was less than 50 nM.)
2 | COc1ccc(NC(=O)NC[C@H]2CC[C@@H](Nc3nc(N(C)C)c4ccccc4n3)CC2)cc1OC1CCCC1 [compound 762] | 3 (Class 3: The value of percent of control at 10^−7 M was more than 60% or the value of IC50 was more than 200 nM.)
3 | CN(C)c1nc(N[C@H]2CC[C@@H](CNC(=O)Nc3ccccc3Cc3ccccc3)CC2)nc2ccccc12 [compound 485] | 3 (Class 3: The value of percent of control at 10^−7 M was more than 60% or the value of IC50 was more than 200 nM.)
4 | Cc1cccc(C(C)C)c1NC(=O)NC[C@H]1CC[C@@H](Nc2nc(N(C)C)c3ccccc3n2)CC1 [compound 501] | 1 (Class 1: The value of percent of control at 10^−7 M was less than 40% or the value of IC50 was less than 50 nM.)
5 | CN(C)c1nc(N[C@H]2CC[C@@H](CNC(=O)Nc3ccc(C#N)cc3)CC2)nc2ccccc12 [compound 549, N-(4-cyanophenyl)-N′-[(cis-4-{[4-(dimethylamino)quinazolin-2-yl]amino}cyclohexyl)methyl]urea] | 1 (Class 1: The value of percent of control at 10^−7 M was less than 40% or the value of IC50 was less than 50 nM.)
6 | CN(C)c1nc(N[C@H]2CC[C@@H](NC(=S)Nc3cc(Cl)c(Cl)cc3Cl)CC2)nc2ccccc12 [compound 244] | 3 (Class 3: The value of percent of control at 10^−7 M was more than 60% or the value of IC50 was more than 200 nM.)
7 | CN(C)c1nc(N[C@H]2CC[C@@H](NC(=O)Nc3ccc4c(c3)OCCO4)CC2)nc2ccccc12 [compound 338, N-(2,3-dihydro-1,4-benzodioxin-6-yl)-N′-(cis-4-{[4-(dimethylamino)quinazolin-2-yl]amino}cyclohexyl)urea] | 1 (Class 1: The value of percent of control at 10^−7 M was less than 40% or the value of IC50 was less than 50 nM.)
8 | CN(C)c1nc(N[C@H]2CC[C@@H](NC(=S)Nc3cc([N+](=O)[O-])ccc3Cl)CC2)nc2ccccc12 [compound 298] | 3 (Class 3: The value of percent of control at 10^−7 M was more than 60% or the value of IC50 was more than 200 nM.)
9 | CC(C)c1cc(Br)c(NC(=O)NC[C@H]2CC[C@@H](Nc3nc(N(C)C)c4ccccc4n3)CC2)c(Br)c1 [compound 759, N-(2,6-dibromo-4-isopropylphenyl)-N′-[(cis-4-{[4-(dimethylamino)quinazolin-2-yl]amino}cyclohexyl)methyl]urea] | 2 (Class 2: The value of percent of control at 10^−7 M was from 40% to 60% or the value of IC50 was from 50 nM to 200 nM.)
10 | CN(C)c1nc(N[C@H]2CC[C@@H](CNC(=S)Nc3ccc(S(N)(=O)=O)cc3)CC2)nc2ccccc12 [compound 742] | 3 (Class 3: The value of percent of control at 10^−7 M was more than 60% or the value of IC50 was more than 200 nM.)
11 | CN(C)c1nc(N[C@H]2CC[C@@H](CNC(=O)Nc3cc([N+](=O)[O-])ccc3Cl)CC2)nc2ccccc12 [compound 487] | 3 (Class 3: The value of percent of control at 10^−7 M was more than 60% or the value of IC50 was more than 200 nM.)
12 | CN(C)c1nc(N[C@H]2CC[C@@H](CNC(=O)Nc3ccccc3)CC2)nc2ccccc12 [compound 452, N-[(cis-4-{[4-(dimethylamino)quinazolin-2-yl]amino}cyclohexyl)methyl]-N′-phenylurea] | 1 (Class 1: The value of percent of control at 10^−7 M was less than 40% or the value of IC50 was less than 50 nM.)
13 | CN(C)c1nc(N[C@H]2CC[C@@H](CNC(=S)Nc3ccc(Cl)c(C(F)(F)F)c3)CC2)nc2ccccc12 [compound 659] | 3 (Class 3: The value of percent of control at 10^−7 M was more than 60% or the value of IC50 was more than 200 nM.)
14 | CCCNC(=S)NC[C@H]1CC[C@@H](Nc2nc(N(C)C)c3ccccc3n2)CC1 [compound 617] | 3 (Class 3: The value of percent of control at 10^−7 M was more than 60% or the value of IC50 was more than 200 nM.)
15 | Cc1onc(-c2ccccc2)c1NC(=O)NC[C@H]1CC[C@@H](Nc2nc(N(C)C)c3ccccc3n2)CC1 [compound 776] | 2 (Class 2: The value of percent of control at 10^−7 M was from 40% to 60% or the value of IC50 was from 50 nM to 200 nM.)
16 | CN(C)c1nc(N[C@H]2CC[C@@H](NC(=S)Nc3ccc(I)cc3)CC2)nc2ccccc12 [compound 237] | 1 (Class 1: The value of percent of control at 10^−7 M was less than 40% or the value of IC50 was less than 50 nM.)

Same assay, conditions: class by percent of control at 10^-7 M or by IC50; read-out: class

Row | IC50 [nM] | Molecule
17 | > 200 | CN(C)c1nc(N[C@H]2CC[C@@H](NC(=O)Nc3cccc(C(F)(F)F)c3)CC2)nc2ccccc12 [compound 56]
18 | 50 to 200 | CN(C)c1nc(N[C@H]2CC[C@@H](NC(=S)Nc3c(F)c(F)c(F)c(F)c3F)CC2)nc2ccccc12 [compound 192, N-(cis-4-{[4-(dimethylamino)quinazolin-2-yl]amino}cyclohexyl)-N′-(pentafluorophenyl)thiourea]
19 | < 50 | Cc1c(NC(=O)N[C@H]2CC[C@@H](Nc3nc(N(C)C)c4ccccc4n3)CC2)cccc1[N+](=O)[O-] [compound 107, N-(cis-4-{[4-(dimethylamino)quinazolin-2-yl]amino}cyclohexyl)-N′-(2-methyl-3-nitrophenyl)urea]
20 | < 50 | CN(C)c1nc(N[C@H]2CC[C@@H](NC(=O)Nc3c(Cl)c(Cl)cc(Cl)c3Cl)CC2)nc2ccccc12 [compound 72, N-(cis-4-{[4-(dimethylamino)quinazolin-2-yl]amino}cyclohexyl)-N′-(2,3,5,6-tetrachlorophenyl)urea]
21 | 50 to 200 | CCCCCCNC(=S)N[C@H]1CC[C@@H](Nc2nc(N(C)C)c3ccccc3n2)CC1 [compound 176, N-(cis-4-{[4-(dimethylamino)quinazolin-2-yl]amino}cyclohexyl)-N′-hexylthiourea]
22 | > 200 | CN(C)c1nc(N[C@H]2CC[C@@H](NC(=O)OCC(Cl)(Cl)Cl)CC2)nc2ccccc12 [compound 865]
23 | > 200 | Cc1noc(C)c1NC(=S)NC[C@H]1CC[C@@H](Nc2nc(N(C)C)c3ccccc3n2)CC1 [compound 817]
24 | < 50 | CN(C)c1nc(N[C@H]2CC[C@@H](NC(=O)Nc3ccc(C#N)cc3)CC2)nc2ccccc12 [compound 149, N-(4-cyanophenyl)-N′-(cis-4-{[4-(dimethylamino)quinazolin-2-yl]amino}cyclohexyl)urea]
25 | < 50 | CN(C)c1nc(N[C@H]2CC[C@@H](NC(=O)NC(c3ccccc3)c3ccccc3)CC2)nc2ccccc12 [compound 844, N-(cis-4-{[4-(dimethylamino)quinazolin-2-yl]amino}cyclohexyl)-N′-(diphenylmethyl)urea]
26 | > 200 | CN(C)c1nc(N[C@H]2CC[C@@H](CNC(=S)Nc3ccc(-n4cccn4)cc3)CC2)nc2ccccc12 [compound 814]

Same assay, conditions: class by percent of control at 10^−7 M or by IC50; read-out: class

Row | Molecule | IC50 [nM]
27 | N-(cis-4-{[4-(dimethylamino)quinazolin-2-yl]amino}cyclohexyl)-6-(3-methylphenoxy)nicotinamide [Example 1055] | < 50
28 | COc1cc(Oc2ncccc2C(=O)N[C@H]2CC[C@@H](Nc3nc(N(C)C)c4ccccc4n3)CC2)cc(OC)c1OC [Example 1041, N-(cis-4-{[4-(dimethylamino)quinazolin-2-yl]amino}cyclohexyl)-2-(3,4,5-trimethoxyphenoxy)nicotinamide] | < 50
29 | CN(C)c1nc(N[C@H]2CC[C@@H](C(=O)NCc3ccc(OC(F)(F)F)cc3)CC2)nc2cc(F)c(F)cc12 [Example 1004, cis-4-{[4-(dimethylamino)-6,7-difluoroquinazolin-2-yl]amino}-N-[4-(trifluoromethoxy)benzyl]cyclohexanecarboxamide] | < 50
30 | CN(C)c1nc(N[C@H]2CC[C@@H](NC(=O)c3ccc(Oc4cccc(C(F)(F)F)c4)nc3)CC2)nc2ccccc12 [Example 1057, N-(cis-4-{[4-(dimethylamino)quinazolin-2-yl]amino}cyclohexyl)-6-[3-(trifluoromethyl)phenoxy]nicotinamide] | < 50
31 | COc1cccc(Oc2ccc(C(=O)N[C@H]3CC[C@@H](Nc4nc(N(C)C)c5ccccc5n4)CC3)cn2)c1OC [Example 1066, 6-(2,3-dimethoxyphenoxy)-N-(cis-4-{[4-(dimethylamino)quinazolin-2-yl]amino}cyclohexyl)nicotinamide] | < 50
32 | Cc1cccc(CNC(=O)[C@H]2CC[C@@H](Nc3nc(N(C)C)c4ccccc4n3)CC2)c1 [Example 1165, cis-4-{[4-(dimethylamino)quinazolin-2-yl]amino}-N-(3-methylbenzyl)cyclohexanecarboxamide] | < 50
33 | CN(C)c1nc(N[C@H]2CC[C@@H](C(=O)NCc3cc(C(F)(F)F)cc(C(F)(F)F)c3)CC2)nc2cc(F)c(F)cc12 [Example 1005, cis-N-[3,5-bis(trifluoromethyl)benzyl]-4-{[4-(dimethylamino)-6,7-difluoroquinazolin-2-yl]amino}cyclohexanecarboxamide] | > 200
34 | CN(C)c1nc(N[C@H]2CC[C@@H](C(=O)NCc3ccc(Br)cc3F)CC2)nc2ccccc12 [Example 1162, cis-N-(4-bromo-2-fluorobenzyl)-4-{[4-(dimethylamino)quinazolin-2-yl]amino}cyclohexanecarboxamide] | < 50

Second part, the molecule after the results:

Row | IC50 [nM] | Molecule
35 | < 50 | CN(C)c1nc(N[C@H]2CC[C@@H](C(=O)NCc3ccccc3C(F)(F)F)CC2)nc2ccccc12 [Example 1193, cis-4-{[4-(dimethylamino)quinazolin-2-yl]amino}-N-[2-(trifluoromethyl)benzyl]cyclohexanecarboxamide]
36 | < 50 | CN(C)c1nc(N[C@H]2CC[C@@H](C(=O)NCc3ccc(F)c(F)c3F)CC2)nc2ccccc12 [Example 1169, cis-4-{[4-(dimethylamino)quinazolin-2-yl]amino}-N-(2,3,4-trifluorobenzyl)cyclohexanecarboxamide]
